Results from ChEMBL document CHEMBL4382203, “Discovery, cocrystallization and biological evaluation of novel piperidine derivatives as high affinity Ls-AChBP ligands possessing α7 nAChR activities” (Eur J Med Chem, 2018).
Active and inactive are the calls of the source. The calls are words filed in the database; no cut-off is given here.

What was measured:
[1] = biological target: Acetylcholine-binding protein (Lymnaea stagnalis, UniProt P58154); assay: Displacement of [3H]epibatidine from Lymnaea stagnalis acetylcholine-binding protein incubated for 60 mins followed by 3 hrs incubation in dark condition by microbeta counting analysis
[2] = biological target: Neuronal acetylcholine receptor; alpha4/beta2 (Homo sapiens) (UniProt P17787+P43681); assay: Agonist activity at alpha4beta2 nAChR (unknown origin) at -60 mV holding potential incubated for 1 sec followed by 60 secs compound washout; assay type: protein-complex assay
[3] = biological target: T1, Neuronal acetylcholine receptor subunit alpha-7 (Homo sapiens, UniProt P36544); assay: Antagonist activity at human alpha7 nAChR assessed as inhibition of acetylcholine-induced response at 100 uM at -60 mV holding potential incubated for 30 secs followed by acetylcholine addition and subsequent compound washout for 30 secs relative to acetylcholine
[4] = biological target: T1, Neuronal acetylcholine receptor subunit alpha-7; assay: Partial agonist activity at human alpha7 nAChR at 100 uM at -60 mV holding potential incubated for 1 sec followed by 60 secs compound washout relative to acetylcholine
[5] = biological target: T1, Neuronal acetylcholine receptor subunit alpha-7; assay: Antagonist activity at human alpha7 nAChR assessed as inhibition of acetylcholine-induced response at 1 uM at -60 mV holding potential incubated for 30 secs followed by acetylcholine addition and subsequent compound washout for 30 secs relative to acetylcholine
[6] = biological target: Acetylcholine-binding protein (Lymnaea stagnalis) (UniProt P58154); assay: Displacement of [3H]epibatidine from Lymnaea stagnalis acetylcholine-binding protein at 100 nM incubated for 60 mins followed by 3 hrs incubation in dark condition by microbeta counting analysis relative to control
[7] = biological target: T1, Neuronal acetylcholine receptor subunit alpha-7; assay: Partial agonist activity at human alpha7 nAChR expressed in Xenopus laevis oocytes at holding potential of -90 mV by patch clamp electrophysiological method; assay type: cell-based
[8] = biological target: T1, Neuronal acetylcholine receptor subunit alpha-7; assay: Partial agonist activity at human alpha7 nAChR expressed in Xenopus laevis oocytes by voltage clamp electrophysiological method; assay type: cell-based
[9] = Half life in ICR mouse at 2 mg/kg, iv; assay type: ADME, organism-based; details: in vivo
[10] = Tmax in ICR mouse at 10 mg/kg, po; assay type: ADME, organism-based; details: in vivo
[11] = Apparent volume of distribution in ICR mouse at 2 mg/kg, iv; assay type: ADME, organism-based; details: in vivo, read-out: Vz
[12] = Ratio of drug level in blood to plasma in ICR mouse at 10 mg/kg, po after 4 hrs; assay type: ADME, organism-based; details: blood and plasma
[13] = Cmax in ICR mouse at 10 mg/kg, po; assay type: ADME, organism-based; parameters: dose 10 mg/kg, route oral; details: in vivo
[14] = AUC (0 to infinity) in ICR mouse at 2 mg/kg, iv; assay type: ADME, organism-based; parameters: dose 2 mg/kg, route intravenous, time infinity; details: in vivo
[15] = Half life in ICR mouse at 10 mg/kg, po; assay type: ADME, organism-based; details: in vivo
[16] = Clearance in ICR mouse at 2 mg/kg, iv; assay type: ADME, organism-based; details: in vivo
[17] = Oral bioavailability in ICR mouse at 10 mg/kg; assay type: ADME, organism-based; details: in vivo
[18] = AUC (0 to infinity) in ICR mouse at 10 mg/kg, po; assay type: ADME, organism-based; parameters: dose 10 mg/kg, time infinity, route oral; details: in vivo
[19] = biological target: T1, Neuronal acetylcholine receptor subunit alpha-7; assay: Partial agonist activity at human alpha7 nAChR at -60 mV holding potential incubated for 1 sec followed by 60 secs compound washout
[20] = Ratio of drug level in blood to plasma in ICR mouse at 2 mg/kg, iv after 4 hrs; assay type: ADME, organism-based; details: blood and plasma
[21] = Tmax in ICR mouse at 2 mg/kg, iv; assay type: ADME, organism-based; details: in vivo
[22] = Cmax in ICR mouse at 2 mg/kg, iv; assay type: ADME, organism-based; parameters: dose 2 mg/kg, route intravenous; details: in vivo

Chain of Acetylcholine-binding protein (P58154 whole entry): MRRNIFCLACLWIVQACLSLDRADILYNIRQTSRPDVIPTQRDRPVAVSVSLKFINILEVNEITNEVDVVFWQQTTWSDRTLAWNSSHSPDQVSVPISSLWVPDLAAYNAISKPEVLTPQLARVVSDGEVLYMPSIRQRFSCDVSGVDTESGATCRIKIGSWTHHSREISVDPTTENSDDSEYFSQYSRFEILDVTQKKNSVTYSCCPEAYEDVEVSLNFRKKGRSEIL
Chain of Acetylcholine-binding protein (Lymnaea stagnalis) (P58154 whole entry): as above
T1 sequence (P36544 whole entry): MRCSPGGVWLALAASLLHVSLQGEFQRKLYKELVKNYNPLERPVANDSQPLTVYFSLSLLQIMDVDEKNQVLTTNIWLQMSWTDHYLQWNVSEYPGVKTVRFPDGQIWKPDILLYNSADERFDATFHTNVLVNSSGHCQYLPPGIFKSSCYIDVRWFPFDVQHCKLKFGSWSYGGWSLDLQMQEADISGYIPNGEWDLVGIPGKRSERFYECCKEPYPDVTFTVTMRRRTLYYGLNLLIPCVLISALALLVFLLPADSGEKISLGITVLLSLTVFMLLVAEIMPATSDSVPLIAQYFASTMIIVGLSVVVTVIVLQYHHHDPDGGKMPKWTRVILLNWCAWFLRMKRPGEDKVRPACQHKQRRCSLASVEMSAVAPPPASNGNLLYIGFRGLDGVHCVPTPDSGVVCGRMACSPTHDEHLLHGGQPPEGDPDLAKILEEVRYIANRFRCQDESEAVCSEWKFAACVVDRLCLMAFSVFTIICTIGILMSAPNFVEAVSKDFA

Row | SMILES | Ki [1] [nM] | Efficacy [4] [%] | also measured
1 | Clc1cccc(CC2(COc3cncnc3)CCCNC2)c1 (centres undefined) | 5.22 |  | 
2 | OCCCCC#Cc1cncc(OCC2(Cc3cccc(Cl)c3)CCCNC2)c1 (centres undefined) | 3.47 | 4.5 | Activity [2]: inactive; inhibition [3]: 97.3%; inhibition [5]: 12.8%
3 | Clc1cccc(CC2(COc3ccc(Cl)nc3)CCCNC2)c1 (centres undefined) | 3.39 | 4.4 | 
4 | Cc1ccccc1CC1(COc2cccnc2)CCCNC1 (centres undefined) | 18.8 | 12.8 | 
5 | Clc1cccc(CC2(COc3ccccn3)CCCNC2)c1 (centres undefined) | > 67.7 |  | inhibition [6]: < 50%
6 | Cc1ccc(-c2ccc(O[C@H]3CN4CCC3CC4)cn2)cc1 |  |  | EC50 [7]: 39 nM
7 | Clc1cccc(CC2(COc3ccncc3)CCCNC2)c1 (centres undefined) | 16.5 |  | 
8 | FC(F)(F)c1ccc(CC2(COc3cccnc3)CCCNC2)cc1 (centres undefined) | 11.9 | 17.5 | 
9 | Clc1ccccc1CC1(COc2cccnc2)CCCNC1 (centres undefined) | 13 | 16.8 | 
10 | OCCCCC#Cc1ccc(OCC2(Cc3cccc(Cl)c3)CCCNC2)cn1 (centres undefined) | 16 | 8.5 | 
11 | Clc1cccc(CC2(COc3ccc4c(c3)[nH]c3ccccc34)CCCNC2)c1 (centres undefined) | > 67.7 |  | inhibition [6]: < 50%
12 | Clc1ccc(CC2(COc3cccnc3)CCNCC2)cc1Cl |  | 3.1 | Activity [2]: inactive; inhibition [3]: 94%; inhibition [5]: 27.2%
13 | FC(F)(F)c1ccccc1CC1(COc2cccnc2)CCCNC1 (centres undefined) | 17.2 | 13.5 | 
14 | FC(F)(F)c1cccc(CC2(COc3cccnc3)CCCNC2)c1 (centres undefined) | 5.93 | 28 | Activity [2]: inactive
15 | Clc1ccc(CC2(COc3cccnc3)CCCNC2)cc1 (centres undefined) | 9.77 | 18.2 | 
16 | OCCCC#Cc1cncc(OCC2(Cc3cccc(Cl)c3)CCCNC2)c1 (centres undefined) | 12.5 |  | 

Row | SMILES | Ki [1] [nM] | Efficacy [4] [%] | also measured
17 | O=C(N[C@H]1CN2CCC1CC2)c1cc2cccc(Cl)c2s1 [ENCENICLINE] |  |  | EC50 [8]: 390 nM
18 | Clc1cccc(CC2(COc3cncc(-c4ccccc4)c3)CCCNC2)c1 (centres undefined) | > 67.7 |  | inhibition [6]: < 50%
19 | Clc1ccc(C[C@]2(COc3cccnc3)CCCNC2)cc1Cl | 26.2 | 5.5 | Activity [2]: inactive; inhibition [3]: 90.8%; inhibition [5]: 27.2%
20 | OCCC#Cc1ccc(OCC2(Cc3cccc(Cl)c3)CCCNC2)cn1 (centres undefined) | 29 |  | 
21 | OCCCC#Cc1ccc(OCC2(Cc3cccc(Cl)c3)CCCNC2)cn1 (centres undefined) | > 67.7 |  | inhibition [6]: < 50%
22 | Clc1cccc(CC2(COc3cncc(Br)c3)CCCNC2)c1 (centres undefined) | 22.2 |  | 
23 | c1ccc(-c2ccc(CC3(COc4cccnc4)CCCNC3)cc2)cc1 (centres undefined) | 11.7 | 7.9 | inhibition [3]: 96.5%; inhibition [5]: 53.4%
24 | Clc1ccc(C[C@@]2(COc3cccnc3)CCCNC2)cc1Cl | 0.86 | 33.3 | Activity [2]: inactive; half-life [9]: 72 min; Tmax [10]: 30 min; Vd [11]: 13.3 L/kg; blood plasma ratio at 4 h [12]: 5.1; Cmax [13]: 1100 nM; AUC(0-inf) [14]: 0.7 µM·h; half-life [15]: 102 min; Emax [4]: 36.1%; clearance [16]: 129 mL/min/kg; bioavailability [17]: 51.2%; AUC(0-inf) [18]: 1.9 µM·h; EC50 [19]: 20400 nM; blood plasma ratio at 4 h [20]: 8.8; Tmax [21]: 4.8 min; Cmax [22]: 1000 nM
25 | Clc1ccc(CC2(COc3cccnc3)CCCNC2)cc1Cl (centres undefined) | 2.27 |  | 
26 | Clc1cccc(CC2(COc3cccnc3)CCCNC2)c1Cl (centres undefined) | 6.02 | 19.5 | 
27 | Cc1cccc(CC2(COc3cccnc3)CCCNC2)c1 (centres undefined) | 12.4 | 14.8 | 
28 | Cc1ccc(CC2(COc3cccnc3)CCCNC2)cc1 (centres undefined) | 16.5 | 13 | 
29 | Clc1cccc(CC2(COc3ccc(Br)nc3)CCCNC2)c1 (centres undefined) | 11.4 |  | 
30 | Clc1cccc(CC2(COc3cccnc3)CCCNC2)c1 (centres undefined) | 5.3 | 33.8 | 
31 | OCCC#Cc1cncc(OCC2(Cc3cccc(Cl)c3)CCCNC2)c1 (centres undefined) | 5.57 |  | 
